Reference: patent publication US20090018134A1, “Compounds - 945” (AstraZeneca AB, priority 2007, published 2009)
Like-named read-outs stand apart in the source and are kept apart here.

Target: T1, mTOR (Homo sapiens, UniProt P42345)
T1 construct: FLAG; made in house
Test: In Vitro mTOR Kinase Assay (Echo), Test (a)(ii)
Type: biochemical
From the text: (a)(ii) In Vitro mTOR Kinase Assay (Echo)
The assay used AlphaScreen technology (Gray et al., Analytical Biochemistry, 2003, 313: 234-245) to determine the ability of test compounds to inhibit phosphorylation by recombinant mTOR.
A C-terminal truncation of mTOR encompassing amino acid residues 1362 to 2549 of mTOR (EMBL Accession No. L34075) was stably expressed as a FLAG-tagged fusion in HEK293 cells as described by Vilella-Bach et al., […], 1999, 274, 4266-4272. The HEK293 FLAG-tagged mTOR (1362-2549) stable cell line was routinely maintained at 37° C. with 5% CO2 up to a confluency of 70-90% in Dulbecco's modified Eagle's growth medium (DMEM; Invitrogen Limited, Paisley, UK Catalogue No. 41966-029) containing 10% heat-inactivated foetal calf serum (FCS; Sigma, Poole, Dorset, UK, Catalogue No. F0392), 1% L-glutamine (Gibco, Catalogue No. 25030-024) and 2 mg/ml Geneticin (G418 sulfate; Invitrogen Limited, UK Catalogue No. 1013 1-027). Following expression in the mammalian HEK293 cell line, expressed protein was purified using the FLAG epitope tag using standard purification techniques.
Aliquots (120 nl […]) of each compound dilution were acoustically dispensed placed using a Labcyte Echo 550 into a well of a Greiner 384-well low volume (LV) white polystyrene plate (Greiner Bio-one).
These assay solutions were incubated for 2 hours at room temperature.
Each reaction was stopped by the addition of […] of a mixture of EDTA (50 mM), bovine serum albumin (BSA; 0.5 mg/mL) and Tris-HCl pH 7.4 buffer (50 mM) containing p70 S6 Kinase (T389) 1A5 Monoclonal Antibody (Cell Signalling Technology, Catalogue No. 9206B) and AlphaScreen Streptavidin donor and Protein A acceptor beads (200 ng; Perkin Elmer, Catalogue No. 6760002B and 6760137R respectively) were added and the assay plates were left overnight at room temperature in the dark. The resultant signals arising from laser light excitation at 680 nm were read using a Packard Envision instrument.
The phosphorylated biotinylated peptide that is associated with AlphaScreen Streptavidin donor beads forms a complex with the p70 S6 Kinase (T389) 1A5 Monoclonal Antibody that is associated with Alphascreen Protein A acceptor beads. Upon laser light excitation at 680 nm, the donor bead: acceptor bead complex produces a signal that can be measured. Accordingly, the presence of mTOR kinase activity results in an assay signal. In the presence of an mTOR kinase inhibitor, signal strength is reduced.
mTOR enzyme inhibition for a given test compound was expressed as an IC50 value.

[1] = read-out: mTOR Kinase Assay (Echo)
[2] = table of enzyme assay Test (a)(ii), read-out: Test (a)(ii) IC50

T1 sequence (P42345 1362-2549): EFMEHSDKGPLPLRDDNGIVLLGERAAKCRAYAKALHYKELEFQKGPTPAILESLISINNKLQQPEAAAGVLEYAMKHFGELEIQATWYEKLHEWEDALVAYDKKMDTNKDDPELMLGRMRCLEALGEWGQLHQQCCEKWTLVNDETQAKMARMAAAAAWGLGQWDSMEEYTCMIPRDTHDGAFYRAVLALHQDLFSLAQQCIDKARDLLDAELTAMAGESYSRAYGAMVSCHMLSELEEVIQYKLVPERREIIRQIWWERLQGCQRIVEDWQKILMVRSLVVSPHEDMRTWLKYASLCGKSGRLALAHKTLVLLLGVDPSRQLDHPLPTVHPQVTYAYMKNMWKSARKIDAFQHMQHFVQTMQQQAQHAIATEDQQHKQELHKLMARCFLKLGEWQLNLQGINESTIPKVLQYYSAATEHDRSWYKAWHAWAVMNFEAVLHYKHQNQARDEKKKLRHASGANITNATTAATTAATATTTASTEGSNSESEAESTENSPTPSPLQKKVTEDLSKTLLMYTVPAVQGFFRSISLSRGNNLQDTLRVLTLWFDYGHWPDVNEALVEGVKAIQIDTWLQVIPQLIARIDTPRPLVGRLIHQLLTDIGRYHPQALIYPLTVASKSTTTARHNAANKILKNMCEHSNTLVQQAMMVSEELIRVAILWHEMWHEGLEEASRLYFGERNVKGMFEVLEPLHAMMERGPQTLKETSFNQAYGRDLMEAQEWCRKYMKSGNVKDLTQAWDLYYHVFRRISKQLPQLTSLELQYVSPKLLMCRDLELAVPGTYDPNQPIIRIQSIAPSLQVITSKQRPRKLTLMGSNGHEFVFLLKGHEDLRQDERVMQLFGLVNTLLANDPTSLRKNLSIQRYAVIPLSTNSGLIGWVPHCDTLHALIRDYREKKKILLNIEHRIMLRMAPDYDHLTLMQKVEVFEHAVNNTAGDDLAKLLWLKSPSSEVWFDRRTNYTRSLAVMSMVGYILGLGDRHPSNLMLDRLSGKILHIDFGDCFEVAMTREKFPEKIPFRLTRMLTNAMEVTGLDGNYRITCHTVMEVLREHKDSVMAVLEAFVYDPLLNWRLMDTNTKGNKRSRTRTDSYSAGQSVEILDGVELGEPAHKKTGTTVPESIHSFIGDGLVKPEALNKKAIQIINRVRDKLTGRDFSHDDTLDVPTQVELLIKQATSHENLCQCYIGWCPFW

IC50 [1] [nM]	IC50 [2] [nM]	Structure (SMILES)
8.44		CC(CO)NC(=O)Nc1ccc(-c2nc(N3CCOC[C@@H]3C)cc(C3(S(C)(=O)=O)CC3)n2)cc1 (stereo partly drawn) [Example 2n, 3-(1-hydroxypropan-2-yl)-1-[4-[4-[(3S)-3-methylmorpholin-4-yl]-6-(1-methylsulfonylcyclopropyl)pyrimidin-2-yl]phenyl]urea]
0.851	0.403	COc1ccc(NC(=O)Nc2ccc(-c3nc(N4CCOC[C@@H]4C)cc(C4(S(C)(=O)=O)CC4)n3)cc2)cn1 [Example 2o, 3-(6-methoxypyridin-3-yl)-1-[4-[4-[(3S)-3-methylmorpholin-4-yl]-6-(1-methylsulfonylcyclopropyl)pyrimidin-2-yl]phenyl]urea]
2.7		C[C@H]1COCCN1c1cc(C2(S(C)(=O)=O)CC2)nc(-c2ccc(NC(=O)Nc3ccc(F)cc3)cc2)n1 [Example 2p, 3-(4-fluorophenyl)-1-[4-[4-[(3S)-3-methylmorpholin-4-yl]-6-(1-methylsulfonylcyclopropyl)pyrimidin-2-yl]phenyl]urea]
1	0.379	C[C@H]1COCCN1c1cc(C2(S(C)(=O)=O)CC2)nc(-c2ccc(NC(=O)Nc3ccc(F)c(F)c3)cc2)n1 [Example 2q, 3-(3,4-difluorophenyl)-1-[4-[4-[(3S)-3-methylmorpholin-4-yl]-6-(1-methylsulfonylcyclopropyl)pyrimidin-2-yl]phenyl]urea]
0.66	1.03	Cc1ccc(NC(=O)Nc2ccc(-c3nc(N4CCOC[C@@H]4C)cc(C4(S(C)(=O)=O)CC4)n3)cc2)cc1 [Example 2r, 1-[4-[4-[(3S)-3-methylmorpholin-4-yl]-6-(1-methylsulfonylcyclopropyl)pyrimidin-2-yl]phenyl]-3-(4-methylphenyl)urea]
1.38	1.55	C[C@H]1COCCN1c1cc(C2(S(C)(=O)=O)CC2)nc(-c2ccc(NC(=O)Nc3ccc(Cl)cc3)cc2)n1 [Example 2s, 3-(4-chlorophenyl)-1-[4-[4-[(3S)-3-methylmorpholin-4-yl]-6-(1-methylsulfonylcyclopropyl)pyrimidin-2-yl]phenyl]urea]
1.45	0.656	COc1ccc(NC(=O)Nc2ccc(-c3nc(N4CCOC[C@@H]4C)cc(C4(S(C)(=O)=O)CC4)n3)cc2)cc1 [Example 2t, 3-(4-methoxyphenyl)-1-[4-[4-[(3S)-3-methylmorpholin-4-yl]-6-(1-methylsulfonylcyclopropyl)pyrimidin-2-yl]phenyl]urea]
1.18		Cc1cc(NC(=O)Nc2ccc(-c3nc(N4CCOC[C@@H]4C)cc(C4(S(C)(=O)=O)CC4)n3)cc2)no1 [Example 2u, 1-[4-[4-[(3S)-3-methylmorpholin-4-yl]-6-(1-methylsulfonylcyclopropyl)pyrimidin-2-yl]phenyl]-3-(5-methyl-1,2-oxazol-3-yl)urea]
8.66		C[C@H]1COCCN1c1cc(C2(S(C)(=O)=O)CC2)nc(-c2ccc(NC(=O)Nc3ccc(F)cn3)cc2)n1 [Example 2v, 3-(5-fluoropyridin-2-yl)-1-[4-[4-[(3S)-3-methylmorpholin-4-yl]-6-(1-methylsulfonylcyclopropyl)pyrimidin-2-yl]phenyl]urea]
68.5		C[C@H]1COCCN1c1cc(C2(S(C)(=O)=O)CC2)nc(-c2ccc(NC(=O)NCC(C)(C)CO)cc2)n1 [Example 2w, 3-(3-hydroxy-2,2-dimethylpropyl)-1-[4-[4-[(3S)-3-methylmorpholin-4-yl]-6-(1-methylsulfonylcyclopropyl)pyrimidin-2-yl]phenyl]urea]
1.64		C[C@H]1COCCN1c1cc(C2(S(C)(=O)=O)CC2)nc(-c2ccc(NC(=O)NCCC#N)cc2)n1 [Example 2x, 3-(2-cyanoethyl)-1-[4-[4-[(3S)-3-methylmorpholin-4-yl]-6-(1-methylsulfonylcyclopropyl)pyrimidin-2-yl]phenyl]urea]
230		C[C@H]1COCCN1c1cc(C2(S(C)(=O)=O)CC2)nc(-c2ccc(NC(=O)NCCN3CCCC3)cc2)n1 [Example 2y, 1-[4-[4-[(3S)-3-methylmorpholin-4-yl]-6-(1-methylsulfonylcyclopropyl)pyrimidin-2-yl]phenyl]-3-(2-pyrrolidin-1-ylethyl)urea]
18.1		C[C@H]1COCCN1c1cc(C2(S(C)(=O)=O)CC2)nc(-c2ccc(NC(=O)NCC(O)C(F)(F)F)cc2)n1 (stereo partly drawn) [Example 2z, 1-[4-[4-[(3S)-3-methylmorpholin-4-yl]-6-(1-methylsulfonylcyclopropyl)pyrimidin-2-yl]phenyl]-3-(3,3,3-trifluoro-2-hydroxypropyl)urea]
4.45		C[C@H]1COCCN1c1cc(C2(S(=O)(=O)C3CC3)CC2)nc(-c2ccc(NC(=O)NC3CCC3)cc2)n1 [Example 3a, 3-cyclobutyl-1-[4-[4-(1-cyclopropylsulfonylcyclopropyl)-6-[(3S)-3-methylmorpholin-4-yl]pyrimidin-2-yl]phenyl]urea]
3.85		C[C@H]1COCCN1c1cc(C2(S(=O)(=O)C3CC3)CC2)nc(-c2ccc(NC(=O)Nc3ccccn3)cc2)n1 [Example 3b, 1-[4-[4-(1-cyclopropylsulfonylcyclopropyl)-6-[(3S)-3-methylmorpholin-4-yl]pyrimidin-2-yl]phenyl]-3-pyridin-2-yl-urea]
12.4		CC(C)CNC(=O)Nc1ccc(-c2nc(N3CCOC[C@@H]3C)cc(C3(S(=O)(=O)C4CC4)CC3)n2)cc1 [Example 3c, 1-[4-[4-(1-cyclopropylsulfonylcyclopropyl)-6-[(3S)-3-methylmorpholin-4-yl]pyrimidin-2-yl]phenyl]-3-(2-methylpropyl)urea]
13.5		CC(C)NC(=O)Nc1ccc(-c2nc(N3CCOC[C@@H]3C)cc(C3(S(=O)(=O)C4CC4)CC3)n2)cc1 [Example 3d, 1-[4-[4-(1-cyclopropylsulfonylcyclopropyl)-6-[(3S)-3-methylmorpholin-4-yl]pyrimidin-2-yl]phenyl]-3-propan-2-yl-urea]
1.66		CCNC(=O)Nc1ccc(-c2nc(N3CCOC[C@@H]3C)cc(C3(S(=O)(=O)C4CC4)CC3)n2)cc1 [Example 3e, 3-[4-[4-(1-cyclopropylsulfonylcyclopropyl)-6-[(3S)-3-methylmorpholin-4-yl]pyrimidin-2-yl]phenyl]-1-ethyl-urea]
21.4		C[C@H]1COCCN1c1cc(C2(S(=O)(=O)C3CC3)CC2)nc(-c2ccc(NC(=O)NCCN(C)C)cc2)n1 [Example 3f, 1-[4-[4-(1-cyclopropylsulfonylcyclopropyl)-6-[(3S)-3-methylmorpholin-4-yl]pyrimidin-2-yl]phenyl]-3-(2-dimethylaminoethyl)urea]
16.5		CCCNC(=O)Nc1ccc(-c2nc(N3CCOC[C@@H]3C)cc(C3(S(=O)(=O)C4CC4)CC3)n2)cc1 [Example 3h, 3-[4-[4-(1-cyclopropylsulfonylcyclopropyl)-6-[(3S)-3-methylmorpholin-4-yl]pyrimidin-2-yl]phenyl]-1-propyl-urea]
0.932		CNC(=O)Nc1ccc(-c2nc(N3CCOC[C@@H]3C)cc(C3(S(=O)(=O)C4CC4)CC3)n2)cc1 [Example 3i, 1-[4-[4-(1-cyclopropylsulfonylcyclopropyl)-6-[(3S)-3-methylmorpholin-4-yl]pyrimidin-2-yl]phenyl]-3-methyl-urea]
4.22		C[C@H]1COCCN1c1cc(C2(S(=O)(=O)C3CC3)CC2)nc(-c2ccc(NC(=O)Nc3ccc(C(F)(F)F)cc3)cc2)n1 [Example 3j, 1-[4-[4-(1-cyclopropylsulfonylcyclopropyl)-6-[(3S)-3-methylmorpholin-4-yl]pyrimidin-2-yl]phenyl]-3-[4-(trifluoromethyl)phenyl]urea]
